Paper PMC3414753, “Oleamide activates peroxisome proliferator-activated receptor gamma (PPARγ) in vitro” (2012)

Legend:
[1] = target: T1, PPARα (Homo sapiens, UniProt Q07869); assay: LanthaScreen TR-FRET competitive binding assay; displacement incomplete at […]
T1 construct: gene PPARA
T1 sequence (Q07869 196-468 limits assumed): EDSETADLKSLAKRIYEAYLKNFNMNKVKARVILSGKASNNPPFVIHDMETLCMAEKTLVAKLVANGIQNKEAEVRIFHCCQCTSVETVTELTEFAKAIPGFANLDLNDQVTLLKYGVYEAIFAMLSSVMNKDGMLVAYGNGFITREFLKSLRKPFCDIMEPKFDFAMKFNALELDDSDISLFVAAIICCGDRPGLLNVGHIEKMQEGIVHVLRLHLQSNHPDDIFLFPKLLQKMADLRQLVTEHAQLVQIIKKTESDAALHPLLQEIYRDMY

[2] = target: T2, PPARβ (Homo sapiens, UniProt Q03181); assay: as above
T2 construct: gene PPARD
T2 sequence (Q03181 171-441 limits assumed): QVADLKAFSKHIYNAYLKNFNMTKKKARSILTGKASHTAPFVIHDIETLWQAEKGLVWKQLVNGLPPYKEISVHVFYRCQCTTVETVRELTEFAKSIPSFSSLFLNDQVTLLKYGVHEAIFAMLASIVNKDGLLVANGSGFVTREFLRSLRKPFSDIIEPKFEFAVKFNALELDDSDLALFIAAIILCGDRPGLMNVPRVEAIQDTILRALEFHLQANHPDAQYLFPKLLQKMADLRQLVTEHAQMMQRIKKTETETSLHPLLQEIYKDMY

[3] = target: T3, PPARγ (Homo sapiens, UniProt P37231); assay: biochemical; assay type: binding
T3 construct: gene PPARG
T3 sequence (P37231 232-505 limits assumed): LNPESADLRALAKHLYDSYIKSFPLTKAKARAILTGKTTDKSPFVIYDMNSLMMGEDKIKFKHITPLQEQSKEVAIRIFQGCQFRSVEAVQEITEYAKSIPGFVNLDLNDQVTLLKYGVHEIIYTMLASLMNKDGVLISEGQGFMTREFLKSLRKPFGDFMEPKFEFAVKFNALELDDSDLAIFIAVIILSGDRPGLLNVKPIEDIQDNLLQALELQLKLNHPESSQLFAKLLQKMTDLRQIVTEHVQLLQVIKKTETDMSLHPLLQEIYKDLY

- IC50 [3]: ~38 µM
Compound: CCCCCCCC/C=C\CCCCCCCC(N)=O [ODA, (Z)-octadec-9-enamide]
- LanthaScreen TR-FRET competitive binding assay; displacement incomplete at 100 μ [1]: ODA evoked concentration-dependent displacement of fluorescent ligand from each receptor binding site, displacement at PPARα and PPARβ was incomplete
- LanthaScreen TR-FRET competitive binding assay; displacement incomplete at 100 μ [2]: ODA evoked concentration-dependent displacement of fluorescent ligand from each receptor binding site, displacement at PPARα and PPARβ was incomplete
